Source: PMC7587356, “High-Throughput Screening for Inhibitors of the SARS-CoV-2 Protease Using a FRET-Biosensor” (Molecules, 2020)
Structures can show the parent of a compound that is named as a salt. Where two headings read alike, the source gives them in different places.

Biological target: SARS-CoV-2 3CLpro (Severe acute respiratory syndrome coronavirus 2, UniProt P0DTD1)
Assay: biochemical
Type: biochemical
Parameters: Replicate_1 / Replicate_2 / mean / mean (LOPAC_screen_w_protease): unit not given here
Settings: for inhibition at 5 µM: 4 h
[1] = LOPAC1280 primary screen with protease, 5 µM compound, mean of two replicates
[2] = LOPAC1280 primary screen with protease, 5 µM compound, replicate 1
[3] = LOPAC1280 primary screen with protease, 5 µM compound, replicate 2
[4] = sheet LOPAC_screen_w_protease, LOPAC1280 primary screen at 5 µM, with protease, mean of the two replicates
[5] = sheet LOPAC_screen_w_protease, LOPAC1280 primary screen at 5 µM, with protease, replicate 1
[6] = sheet LOPAC_screen_w_protease, LOPAC1280 primary screen at 5 µM, with protease, replicate 2
[7] = sheet LOPAC_screen_w_protease, LOPAC1280 primary screen with protease, 5 µM compound, mean of the two replicates
[8] = sheet LOPAC_screen_w_protease, LOPAC1280 primary screen with protease, 5 µM compound, replicate 1
[9] = sheet LOPAC_screen_w_protease, LOPAC1280 primary screen with protease, 5 µM compound, replicate 2
[10] = sheet LOPAC_screen_w_protease, primary screen at 5 µM, mean of two replicates
[11] = sheet LOPAC_screen_w_protease, primary screen at 5 µM, replicate 1
[12] = sheet LOPAC_screen_w_protease, primary screen at 5 µM, replicate 2
[13] = LOPAC1280 primary screen with protease, 5 µM compound, mean of the two replicates
[14] = sheet LOPAC_screen_w_protease, primary screen with protease, 5 µM, mean of two replicates
[15] = sheet LOPAC_screen_w_protease, primary screen with protease, 5 µM, replicate 1
[16] = sheet LOPAC_screen_w_protease, primary screen with protease, 5 µM, replicate 2

## Nc1nc(Cl)nc2c1ncn2[C@@H]1O[C@H](COP(=O)(O)OP(=O)(O)OP(=O)(O)O)C(O)C1O (stereo in doubt)
[1]
  mean (LOPAC_screen_w_protease): 1.575
[2]
  Replicate_1 (LOPAC_screen_w_protease): 3.171
[3]
  Replicate_2 (LOPAC_screen_w_protease): -0.0216

## Nc1ncnc2c1nc(Sc1ccc(Cl)cc1)n2C1OC2COP(=O)(O)OC2C1O (stereo in doubt) [8-(4-Chlorophenylthio)-cAMP sodium]
[4]
  mean: 0.5451
[5]
  Replicate_1: 0.8706
[6]
  Replicate_2: 0.2195

## CCCCC1(C2CCCC2)Cc2cc(OCC(=O)O)c(Cl)c(Cl)c2C1=O (stereo in doubt) [R(+)-Butylindazone]
Sheet LOPAC_screen_w_protease, primary screen with protease, mean of two replicates
  mean: 2.217
Sheet LOPAC_screen_w_protease, primary screen with protease, replicate 1
  Replicate_1: 3.715
Sheet LOPAC_screen_w_protease, primary screen with protease, replicate 2
  Replicate_2: 0.7192

## CCn1c(=O)c2nc(-c3ccccc3)[nH]c2n(CC)c1=O [1,3-Diethyl-8-phenylxanthine]
Sheet LOPAC_screen_w_protease, primary screen of LOPAC1280 at 5 µM with protease, mean of the two replicates, read-out: mean
  inhibition at 5 µM: 3.47%
Sheet LOPAC_screen_w_protease, primary screen of LOPAC1280 at 5 µM with protease, replicate 1, read-out: Replicate_1
  inhibition at 5 µM: 3.04%
Sheet LOPAC_screen_w_protease, primary screen of LOPAC1280 at 5 µM with protease, replicate 2, read-out: Replicate_2
  inhibition at 5 µM: 3.9%

## Cn1c(=O)c2[nH]c(-c3ccccc3)nc2n(C)c1=O [1,3-Dimethyl-8-phenylxanthine]
[7]
  mean: 6.36
[8]
  Replicate_1: 5.626
[9]
  Replicate_2: 7.0953

## CCCn1c(=O)c2c(ncn2C)n(CCC)c1=O [1,3-Dipropyl-7-methylxanthine]
Sheet LOPAC_screen_w_protease, primary screen with protease, compound at 5 µM, mean of two replicates
  mean: 3.018
Sheet LOPAC_screen_w_protease, primary screen with protease, compound at 5 µM, replicate 1
  Replicate_1: 3.463
Sheet LOPAC_screen_w_protease, primary screen with protease, compound at 5 µM, replicate 2
  Replicate_2: 2.572

## CCCn1c(=O)c2[nH]c(-c3ccc(S(=O)(=O)O)cc3)nc2n(CCC)c1=O [1,3-Dipropyl-8-p-sulfophenylxanthine]
[10]
  mean (LOPAC screen with protease): 7.8949
[11]
  Replicate_1 (LOPAC screen with protease): 7.582
[12]
  Replicate_2 (LOPAC screen with protease): 8.208

## Br.Br.N=C(N)SCCc1cccc(CCSC(=N)N)c1 [1,3-PBIT dihydrobromide]
[1]
  mean (LOPAC_screen_w_protease): 1.415
[2]
  Replicate_1 (LOPAC_screen_w_protease): 1.3545
[3]
  Replicate_2 (LOPAC_screen_w_protease): 1.476

## OC[C@H]1NC[C@@H](O)[C@@H]1O [1,4-Dideoxy-1,4-imino-D-arabinitol]
[1]
  mean (LOPAC_screen_w_protease): 1.627
[2]
  Replicate_1 (LOPAC_screen_w_protease): 1.388
[3]
  Replicate_2 (LOPAC_screen_w_protease): 1.866

## Br.Br.N=C(N)SCCc1ccc(CCSC(=N)N)cc1 [1,4-PBIT dihydrobromide]
[4]
  mean: 0.7618
[5]
  Replicate_1: 0.8182
[6]
  Replicate_2: 0.7055

## Oc1cccc2c(O)nccc12 [1,5-Isoquinolinediol]
[13]
  mean (LOPAC_screen_w_protease): 2.037
[2]
  Replicate_1 (LOPAC_screen_w_protease): 1.193
[3]
  Replicate_2 (LOPAC_screen_w_protease): 2.882

## Cn1c(=O)[nH]c2ncn(C)c2c1=O [1,7-Dimethylxanthine]
LOPAC1280 primary screen with protease, 5 µM compound, replicate 1, read-out: Replicate_1 (LOPAC_screen_w_protease)
  inhibition at 5 µM: 1.95%
LOPAC1280 primary screen with protease, 5 µM compound, replicate 2, read-out: Replicate_2 (LOPAC_screen_w_protease)
  inhibition at 5 µM: 1.66%
[13]
  mean (LOPAC_screen_w_protease): 1.802

## NCCCCCCCCCCN [1,10-Diaminodecane]
Sheet LOPAC_screen_w_protease, primary screen with protease, mean of two replicates, read-out: mean
  inhibition at 5 µM: 2.36%
Sheet LOPAC_screen_w_protease, primary screen with protease, replicate 1, read-out: Replicate_1
  inhibition at 5 µM: 3.01%
Sheet LOPAC_screen_w_protease, primary screen with protease, replicate 2, read-out: Replicate_2
  inhibition at 5 µM: 1.71%

## O.c1cnc2c(c1)ccc1cccnc12 [1,10-Phenanthroline monohydrate]
[14]
  mean: 0.3766
[15]
  Replicate_1: -0.05956
[16]
  Replicate_2: 0.8127

## Cl.c1ccc2c(N3CCNCC3)cccc2c1 [1-(1-Naphthyl)piperazine hydrochloride]
[1]
  mean (LOPAC_screen_w_protease): 1.563
[2]
  Replicate_1 (LOPAC_screen_w_protease): 4.027
[3]
  Replicate_2 (LOPAC_screen_w_protease): -0.9014

## Oc1ccc(Cn2cc[nH]c2=S)cc1 [1-(4-Hydroxybenzyl)imidazole-2-thiol]
Sheet LOPAC_screen_w_protease, primary screen at 5 µM, mean of two replicates, read-out: mean (LOPAC screen with protease)
  inhibition at 5 µM: 35.7%
Sheet LOPAC_screen_w_protease, primary screen at 5 µM, replicate 1, read-out: Replicate_1 (LOPAC screen with protease)
  inhibition at 5 µM: 39.5%
Sheet LOPAC_screen_w_protease, primary screen at 5 µM, replicate 2, read-out: Replicate_2 (LOPAC screen with protease)
  inhibition at 5 µM: 31.9%

## Nn1nnc2ccccc21 [1-Aminobenzotriazole]
Sheet LOPAC_screen_w_protease, LOPAC1280 at 5 µM, mean of two replicates
  mean: 1.253
Sheet LOPAC_screen_w_protease, LOPAC1280 at 5 µM, replicate 1
  Replicate_1: 1.647
Sheet LOPAC_screen_w_protease, LOPAC1280 at 5 µM, replicate 2
  Replicate_2: 0.8595

## OC[C@H]1NC[C@H](O)[C@@H](O)[C@@H]1O [1-Deoxynojirimycin hydrochloride]
Sheet LOPAC_screen_w_protease, primary screen with protease, compound at 5 µM, mean of two replicates, read-out: mean
  inhibition at 5 µM: 2.78%
Sheet LOPAC_screen_w_protease, primary screen with protease, compound at 5 µM, replicate 1, read-out: Replicate_1
  inhibition at 5 µM: 4.02%
Sheet LOPAC_screen_w_protease, primary screen with protease, compound at 5 µM, replicate 2, read-out: Replicate_2
  inhibition at 5 µM: 1.54%

## Cl.Cl.Cn1cnc(CCN)c1 [1-Methylhistamine dihydrochloride]
[7]
  mean: 4.368
[8]
  Replicate_1: 3.059
[9]
  Replicate_2: 5.677

## Cn1ccnc1 [1-Methylimidazole]
Sheet LOPAC_screen_w_protease, LOPAC1280 primary screen with protease, 5 µM compound, mean of the two replicates, read-out: mean
  inhibition at 5 µM: 4.84%
Sheet LOPAC_screen_w_protease, LOPAC1280 primary screen with protease, 5 µM compound, replicate 1, read-out: Replicate_1
  inhibition at 5 µM: 4.68%
Sheet LOPAC_screen_w_protease, LOPAC1280 primary screen with protease, 5 µM compound, replicate 2, read-out: Replicate_2
  inhibition at 5 µM: 4.99%

## S=C(Nc1ccccc1)Nc1nccs1 [1-Phenyl-3-(2-thiazolyl)-2-thiourea]
[10]
  mean (LOPAC screen with protease): 7.407
[11]
  Replicate_1 (LOPAC screen with protease): 6.341
[12]
  Replicate_2 (LOPAC screen with protease): 8.4724

## N=C(N)NC(=N)Nc1ccccc1 [1-Phenylbiguanide]
[4]
  mean: 0.7649
[5]
  Replicate_1: -0.09991
[6]
  Replicate_2: 1.6298

## FC(F)(F)c1ccccc1-n1ccnc1 [1-[2-(Trifluoromethyl)phenyl]imidazole]
[14]
  mean: -0.5336
[15]
  Replicate_1: 0.8297
[16]
  Replicate_2: -1.897

## Cc1cn([C@H]2C=C[C@@H](CO)O2)c(=O)[nH]c1=O [2',3'-didehydro-3'-deoxythymidine]
[13]
  mean (LOPAC_screen_w_protease): 1.906
[2]
  Replicate_1 (LOPAC_screen_w_protease): 2.073
[3]
  Replicate_2 (LOPAC_screen_w_protease): 1.738

## Nc1ccn([C@H]2CC[C@@H](CO)O2)c(=O)n1 [2',3'-dideoxycytidine]
Sheet LOPAC_screen_w_protease, LOPAC1280 at 5 µM, mean of two replicates, read-out: mean
  inhibition at 5 µM: 1.06%
Sheet LOPAC_screen_w_protease, LOPAC1280 at 5 µM, replicate 1, read-out: Replicate_1
  inhibition at 5 µM: 1.73%
Sheet LOPAC_screen_w_protease, LOPAC1280 at 5 µM, replicate 2, read-out: Replicate_2
  inhibition at 5 µM: 0.388%

## c1ccc(-c2ccccn2)nc1 [2,2'-Bipyridyl]
[4]
  mean: 0.8479
[5]
  Replicate_1: 3.924
[6]
  Replicate_2: -2.2286

## CC(=O)C(C)=NO [2,3-Butanedione monoxime]
[1]
  mean (LOPAC_screen_w_protease): 1.644
[2]
  Replicate_1 (LOPAC_screen_w_protease): 1.791
[3]
  Replicate_2 (LOPAC_screen_w_protease): 1.497

## CC(=O)C(C)=O [2,3-Butanedione]
Sheet LOPAC_screen_w_protease, LOPAC1280 primary screen at 5 µM, with protease, mean of the two replicates, read-out: mean
  inhibition at 5 µM: 0.702%
Sheet LOPAC_screen_w_protease, LOPAC1280 primary screen at 5 µM, with protease, replicate 1, read-out: Replicate_1
  inhibition at 5 µM: 1.88%
Sheet LOPAC_screen_w_protease, LOPAC1280 primary screen at 5 µM, with protease, replicate 2, read-out: Replicate_2
  inhibition at 5 µM: -0.473%

## COC1=C(OC)C(=O)c2ccccc2C1=O [2,3-Dimethoxy-1,4-naphthoquinone]
[4]
  mean: 0.8524
[5]
  Replicate_1: 0.1505
[6]
  Replicate_2: 1.554

## Nc1cc(=O)[nH]c(N)n1 [2,6-Diamino-4-pyrimidinone]
Sheet LOPAC_screen_w_protease, primary screen of LOPAC1280 at 5 µM with protease, mean of the two replicates
  mean: 3.421
Sheet LOPAC_screen_w_protease, primary screen of LOPAC1280 at 5 µM with protease, replicate 1
  Replicate_1: 3.441
Sheet LOPAC_screen_w_protease, primary screen of LOPAC1280 at 5 µM with protease, replicate 2
  Replicate_2: 3.4

## O=C[C@H](Cl)[C@@H](O)[C@H](O)[C@H](O)CO [2-Chloro-2-deoxy-D-glucose]
[13]
  mean (LOPAC_screen_w_protease): 1.752
[2]
  Replicate_1 (LOPAC_screen_w_protease): 1.144
[3]
  Replicate_2 (LOPAC_screen_w_protease): 2.361

## Nc1nc(Cl)nc2c1ncn2[C@@H]1O[C@H](CO)[C@@H](O)[C@H]1O [2-Chloroadenosine]
[1]
  mean (LOPAC_screen_w_protease): 1.409
[2]
  Replicate_1 (LOPAC_screen_w_protease): 1.21
[3]
  Replicate_2 (LOPAC_screen_w_protease): 1.608

## NCC(O)(CS(=O)(=O)O)c1ccc(Cl)cc1 (centres unmarked) [2-Hydroxysaclofen]
[4]
  mean: 0.8279
[6]
  Replicate_2: -0.8627

## COc1ccc2[nH]c(I)c(CCNC(C)=O)c2c1 [2-Iodomelatonin]
[7]
  mean: 5.613
[8]
  Replicate_1: 6.946
[9]
  Replicate_2: 4.28
